Laboratory results taken from patent US7825123B2, “Isoxazolo[4,5]pyridin-3-yl-piperazin derivatives useful as modulators of dopamine D3 receptors” (Hoffmann-La Roche Inc., priority 2008, dated 2010).

Each molecule was assayed against T1, human D3 dopamine receptor (Homo sapiens, UniProt P35462) (assay: radioligand binding ([3H]-spiperone) to cloned human D3 receptors expressed in HEK-293 EBNA cells). Settings: [3H]-spiperone approx. 0.5 nM, HEK-293 EBNA membranes, 1 h at RT; Ki by Cheng-Prusoff.
T1 construct: expressed in transfected cells; host or cells: HEK-293 EBNA cells, transient transfection; membrane preparation
Protocol: The cells were harvested 48 h post-transfection, washed three times with cold PBS and stored at −80° C. prior to use. The pellet was suspended in cold 50 mM Tris-HCl buffer containing 10 mM EDTA (pH 7.4) and homogenized with a Polytron (Kinematica AG, Basel, Switzerland) for 20-30 sec at 12.000 rpm. After centrifugation at 48.000×g for 30 min at 4° C., the pellet was resuspended in cold 10 mM Tris-HCl buffer containing 0.1 mM EDTA (pH 7.4), homogenized, and centrifuged as above. This pellet was further resuspended in a smaller volume of ice cold 10 mM Tris-HCl buffer containing 0.1 mM EDTA (pH 7.4) and homogenized with a Polytron for 20-30 sec at 12.000 rpm. The protein content of this homogenate was determined with the Bio-Rad (Bradford) Protein Assay (Biorad Laboratories GmbH, München, Germany) according to the instructions of the manufacturer using gamma globulin as the standard. This homogenate was stored at −80° C. in aliquots and thawed immediately prior to use.
Aliquots of membrane preparations were thawed at RT, resuspended in assay buffer (50 mM Tris-HCl, 120 mM NaCl, 5 mM MgCl2, 1 mM EDTA, 5 mM KCl, 1.5 mM CaCl2, pH=7.4), homogenized with a Polytron for 20-30 sec at 12.000 rpm and adjusted to a final concentration of approximately 7.5 μg protein/well.
The binding affinity (Ki) of the compounds was determined using radioligand binding. Membranes were incubated in a total volume of 200 μl with a fixed concentration of radioligand (final concentration approximately 0.5 nM [^3H]-spiperone) and ten concentrations of test compound in ranging between 10 μM-0.1 nM for 1 h at RT. […] The nonspecific binding was determined with equally composed reaction mixtures in the presence of 10 μM unlabelled spiperone. Per well 45 μl of Microscint 40 (Perkin Elmer, Schwerzenbach, Switzerland) was added, plates for sealed, shaken for 20 min and counted for 3 min on a Topcount Microplate Scintillation Counter (Canberra Packard SA, Zürich, Switzerland) with quenching correction.
The CPM value for each duplicate of a concentration of competing compound was averaged (y1), then the % specific binding was calculated according to the equation (((y1−non-specific)/(total binding−non-specific))×100). Graphs were plotted with the % specific binding using XLfit, a curve fitting program that iteratively plots the data using Levenburg Marquardt algorithm. The single site competition analysis equation used was y=A+((B−A)/(1+((x/C)^D))), where y is the % specific binding, A is the minimum y, B is the maximum y, C is the IC50, x is the log10 of the concentration of the competing compound and D is the slope of the curve (the Hill Coefficient). […] The affinity constant (Ki) was calculated using the Cheng-Prusoff equation Ki=(IC50/1+([L]/Kd), where [L] is the concentration of radioligand and Kd is the dissociation constant of the radioligand at the receptor as determined by the saturation isotherm.

T1 sequence (P35462 whole entry): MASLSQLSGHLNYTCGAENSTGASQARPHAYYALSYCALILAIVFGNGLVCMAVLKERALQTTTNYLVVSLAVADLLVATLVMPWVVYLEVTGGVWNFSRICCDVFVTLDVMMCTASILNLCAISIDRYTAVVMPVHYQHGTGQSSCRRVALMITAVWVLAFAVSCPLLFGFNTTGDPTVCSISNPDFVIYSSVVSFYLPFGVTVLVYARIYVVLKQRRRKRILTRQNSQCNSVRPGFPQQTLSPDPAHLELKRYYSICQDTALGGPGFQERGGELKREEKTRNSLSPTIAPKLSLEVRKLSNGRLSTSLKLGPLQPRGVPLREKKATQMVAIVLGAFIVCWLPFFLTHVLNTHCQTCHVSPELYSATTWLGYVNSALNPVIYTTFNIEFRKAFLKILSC

Row | Compound | Ki [µM]
1 | COCCC(=O)N[C@H]1CC[C@H](CCN2CCN(c3noc4ccncc34)CC2)CC1 [Example 2, N-{trans-4-[2-(4-Isoxazolo[4,5-c]pyridin-3-yl-piperazin-1-yl)-ethyl]-cyclohexyl}-3-methoxy-propionamide] | 0.0243
2 | O=C(CC1CC1)N[C@H]1CC[C@H](CCN2CCN(c3noc4ccncc34)CC2)CC1 [Example 4, 2-Cyclopropyl-N-{trans-4-[2-(4-isoxazolo[4,5-c]pyridin-3-yl-piperazin-1-yl)-ethyl]-cyclohexyl}-acetamide] | 0.0154
3 | O=C(CF)N[C@H]1CC[C@H](CCN2CCN(c3noc4ccncc34)CC2)CC1 [Example 5, 2-Fluoro-N-{trans-4-[2-(4-isoxazolo[4,5-c]pyridin-3-yl-piperazin-1-yl)-ethyl]-cyclohexyl}-acetamide] | 0.043
4 | O=C(N[C@H]1CC[C@H](CCN2CCN(c3noc4ccncc34)CC2)CC1)c1ccc(F)nc1 [Example 7, 6-Fluoro-N-{trans-4-[2-(4-isoxazolo[4,5-c]pyridin-3-yl-piperazin-1-yl)-ethyl]-cyclohexyl}-nicotinamide] | 0.063

Further lines, results first:

Row | Ki [µM] | Compound
5 | 0.0404 | CC(=O)N[C@H]1CC[C@H](CCN2CCN(c3noc4ccncc34)CC2)CC1 [Example 1, N-{trans-4-[2-(4-Isoxazolo[4,5-c]pyridin-3-yl-piperazin-1-yl)-ethyl]-cyclohexyl}-acetamide]
6 | 0.0124 | CCC(=O)N[C@H]1CC[C@H](CCN2CCN(c3noc4ccncc34)CC2)CC1 [Example 3, N-{trans-4-[2-(4-Isoxazolo[4,5-c]pyridin-3-yl-piperazin-1-yl)-ethyl]-cyclohexyl}-propionamide]
7 | 0.097 | O=C(N[C@H]1CC[C@H](CCN2CCN(c3noc4ccncc34)CC2)CC1)c1ccc(F)cc1 [Example 6, 4-Fluoro-N-{trans-4-[2-(4-isoxazolo[4,5-c]pyridin-3-yl-piperazin-1-yl)-ethyl]-cyclohexyl}-benzamide]
